Reference: ChEMBL document CHEMBL3351312, “Design of Fluorine-Containing 3,4-Diarylfuran-2(5H)-ones as Selective COX-1 Inhibitors” (ACS Med Chem Lett, 2014)
pIC50: −log10 of the molar value.

Tests used:
[1] = molecular target: Prostaglandin G/H synthase 1 (Homo sapiens, UniProt P23219); test: Inhibition of COX-1 in human OVCAR3 cells by cell-based assay; design: species or system OVCAR-3
[2] = molecular target: T1, Prostaglandin G/H synthase 2 (Homo sapiens, UniProt P35354); test: Inhibition of COX-2 in human 1483 cells by cell-based assay
T1 sequence (P35354 whole entry): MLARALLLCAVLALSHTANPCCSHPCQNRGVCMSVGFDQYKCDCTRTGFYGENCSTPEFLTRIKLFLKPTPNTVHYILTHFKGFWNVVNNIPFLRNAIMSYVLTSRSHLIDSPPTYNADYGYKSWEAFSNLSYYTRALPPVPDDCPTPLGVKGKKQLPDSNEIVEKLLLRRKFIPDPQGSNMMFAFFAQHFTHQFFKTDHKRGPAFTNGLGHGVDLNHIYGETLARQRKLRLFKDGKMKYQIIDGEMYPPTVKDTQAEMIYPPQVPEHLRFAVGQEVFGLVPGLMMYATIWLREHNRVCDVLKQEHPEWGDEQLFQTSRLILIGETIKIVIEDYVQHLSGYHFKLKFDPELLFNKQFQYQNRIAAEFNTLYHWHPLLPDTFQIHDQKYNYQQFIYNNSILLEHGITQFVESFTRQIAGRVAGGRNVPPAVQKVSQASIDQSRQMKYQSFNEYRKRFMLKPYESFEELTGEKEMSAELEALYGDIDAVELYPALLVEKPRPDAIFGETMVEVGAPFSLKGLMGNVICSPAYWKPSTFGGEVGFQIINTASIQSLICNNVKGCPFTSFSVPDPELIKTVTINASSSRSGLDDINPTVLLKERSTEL

[3] = molecular target: T2, Prostaglandin G/H synthase 1 (Ovis aries, UniProt P05979); test: Inhibition of ovine COX-1 assessed as inhibition of [14C]arachidonic acid to radiolabeled prostaglandins preincubated for 20 mins by TLC-based assay
T2 sequence (P05979 whole entry): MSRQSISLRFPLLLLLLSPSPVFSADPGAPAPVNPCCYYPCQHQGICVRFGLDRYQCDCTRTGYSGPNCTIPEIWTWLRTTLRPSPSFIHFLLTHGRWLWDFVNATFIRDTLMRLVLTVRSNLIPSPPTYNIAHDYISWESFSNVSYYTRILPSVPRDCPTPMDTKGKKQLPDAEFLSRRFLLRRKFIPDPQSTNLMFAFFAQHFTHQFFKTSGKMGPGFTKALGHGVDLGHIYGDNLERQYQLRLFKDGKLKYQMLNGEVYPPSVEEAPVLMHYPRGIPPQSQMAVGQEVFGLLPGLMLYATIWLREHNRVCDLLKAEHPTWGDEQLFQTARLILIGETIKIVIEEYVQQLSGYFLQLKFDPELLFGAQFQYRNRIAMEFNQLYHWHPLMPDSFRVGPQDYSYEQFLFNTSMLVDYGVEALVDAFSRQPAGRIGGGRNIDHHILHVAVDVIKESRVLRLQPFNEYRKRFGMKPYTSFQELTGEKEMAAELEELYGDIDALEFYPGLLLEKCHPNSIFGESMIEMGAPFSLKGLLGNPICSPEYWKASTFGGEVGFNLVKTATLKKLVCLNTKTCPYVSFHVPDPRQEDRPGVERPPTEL

[4] = molecular target: T3, Prostaglandin G/H synthase 2 (Mus musculus, UniProt Q05769); test: Inhibition of mouse COX-2 assessed as inhibition of [14C]arachidonic acid to radiolabeled prostaglandins preincubated for 20 mins by TLC-based assay
T3 sequence (Q05769 whole entry): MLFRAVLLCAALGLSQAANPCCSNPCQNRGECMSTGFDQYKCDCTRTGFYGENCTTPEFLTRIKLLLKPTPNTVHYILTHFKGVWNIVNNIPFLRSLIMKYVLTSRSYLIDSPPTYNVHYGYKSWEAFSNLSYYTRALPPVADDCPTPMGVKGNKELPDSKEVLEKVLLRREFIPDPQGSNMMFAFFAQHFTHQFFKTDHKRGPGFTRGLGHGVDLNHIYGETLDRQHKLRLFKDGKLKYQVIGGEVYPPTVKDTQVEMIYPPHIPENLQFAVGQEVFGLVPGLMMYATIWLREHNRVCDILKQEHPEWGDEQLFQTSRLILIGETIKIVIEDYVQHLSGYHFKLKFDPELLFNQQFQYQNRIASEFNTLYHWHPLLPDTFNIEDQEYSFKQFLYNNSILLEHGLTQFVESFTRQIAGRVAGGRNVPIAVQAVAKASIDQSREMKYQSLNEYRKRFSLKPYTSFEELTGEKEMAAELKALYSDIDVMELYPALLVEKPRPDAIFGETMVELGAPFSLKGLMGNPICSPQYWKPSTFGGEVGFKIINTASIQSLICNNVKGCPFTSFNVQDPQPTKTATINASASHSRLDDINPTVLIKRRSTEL

[5] = molecular target: T4, Prostaglandin G/H synthase 2 (Mus musculus) (UniProt Q05769); test: Inhibition of mouse COX-2 assessed as inhibition of [14C]arachidonic acid to radiolabeled prostaglandins measured as residual activity preincubated for 20 mins by TLC-based assay
T4 sequence (whole entry): T3 sequence (Q05769 whole entry)

Sequence of Prostaglandin G/H synthase 1 (Homo sapiens, UniProt P23219) (P23219 whole entry): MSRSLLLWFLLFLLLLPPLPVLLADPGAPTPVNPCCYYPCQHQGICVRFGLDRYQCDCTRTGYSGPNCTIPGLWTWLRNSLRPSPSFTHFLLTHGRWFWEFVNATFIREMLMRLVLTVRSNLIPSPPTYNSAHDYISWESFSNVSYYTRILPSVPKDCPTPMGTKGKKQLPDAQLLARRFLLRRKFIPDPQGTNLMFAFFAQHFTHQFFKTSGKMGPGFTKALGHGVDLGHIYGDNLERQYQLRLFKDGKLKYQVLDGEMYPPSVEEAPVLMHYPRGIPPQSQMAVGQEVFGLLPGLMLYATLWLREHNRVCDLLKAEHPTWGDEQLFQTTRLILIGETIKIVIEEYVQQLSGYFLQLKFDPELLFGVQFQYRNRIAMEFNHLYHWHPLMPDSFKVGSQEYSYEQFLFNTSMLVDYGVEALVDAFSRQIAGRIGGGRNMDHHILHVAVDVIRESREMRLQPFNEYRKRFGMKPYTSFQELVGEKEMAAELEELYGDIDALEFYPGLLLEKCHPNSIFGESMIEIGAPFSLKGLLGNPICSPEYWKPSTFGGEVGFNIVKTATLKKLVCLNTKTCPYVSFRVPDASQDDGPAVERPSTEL

| pIC50 [1] | pIC50 [2] | pIC50 [3] | pIC50 [4] | Activity [5] | SMILES |
| --- | --- | --- | --- | --- | --- |
| 6.44 | < 5.30 | 6.32 | < 4.60 | > 50% | COc1ccc(C2=C(c3ccc(F)cc3)C(=O)OC2)cc1 |
| 6.11 | < 5.30 | 6.02 | < 4.60 | – | Cc1ccc(C2=C(c3ccc(F)cc3)C(=O)OC2)cc1 |
| – | – | < 4.60 | < 4.60 | – | COc1ccc(C2=C(c3ccccc3F)C(=O)OC2)cc1 |
| – | – | 5.30 | < 4.60 | – | Cc1ccc(C2=C(c3ccnc(Cl)c3)C(=O)OC2)cc1 |
| – | – | < 4.60 | < 4.60 | – | CN(C)c1ccc(C2=C(c3ccc(F)cc3)COC2=O)cc1 |
| – | – | 6.33 | < 4.60 | – | N#Cc1ccc(C2=C(c3cccc(F)c3)C(=O)OC2)cc1 |
| – | – | 5.23 | < 4.60 | – | O=C1OCC(c2ccccc2)=C1c1ccccc1 |
| – | – | < 4.60 | < 4.60 | – | Cc1ccc(C2=C(c3ccccc3F)COC2=O)cc1 |
| – | – | < 4.60 | < 4.60 | – | CN(C)c1ccc(C2=C(c3ccccc3F)COC2=O)cc1 |
| – | – | < 4.60 | < 4.60 | – | O=C1OCC(c2ccc(F)cc2)=C1c1ccc(Br)cc1 |
| – | – | < 4.60 | < 4.60 | – | O=C1OCC(c2cccc(F)c2)=C1c1ccccc1 |
| – | – | 6.92 | 6.35 | – | COc1ccc(C2=C(c3ccc(Br)cc3)C(=O)OC2)cc1 |
| – | – | < 4.60 | < 4.60 | – | COc1ccc(C2=C(c3ccccc3)C(=O)OC2)cc1 |
| – | – | < 4.60 | < 4.60 | – | O=C1OCC(c2ccc(F)cc2)=C1c1ccc(O)cc1 |
| – | – | < 4.60 | < 4.60 | – | COc1ccc(C2=C(c3ccc(Oc4ccc(F)cc4)cc3)C(=O)OC2)cc1 |
| – | – | 5.36 | < 4.60 | – | COc1ccc(C2=C(c3ccnc(Cl)c3)C(=O)OC2)cc1 |
| < 5.40 | < 5.30 | 7.05 | < 4.60 | > 50% | COc1ccc(C2=C(c3ccc(I)cc3)C(=O)OC2)cc1 |
| – | – | < 4.60 | < 4.60 | – | O=C1OCC(c2ccccc2F)=C1c1ccc(CO)cc1 |
| – | – | 5.01 | < 4.60 | – | CCc1ccc(C2=C(c3cccc(F)c3)C(=O)OC2)cc1 |
| – | – | < 4.60 | < 4.60 | – | O=C1OCC(c2ccccc2F)=C1c1ccccc1 |
| – | – | < 4.60 | < 4.60 | – | O=C1OCC(c2ccccc2)=C1c1cccc(F)c1 |
| – | – | < 4.60 | < 4.60 | – | O=C1OCC(c2ccc(F)cc2)=C1c1ccc(Cl)cc1 |
| – | – | 5.06 | < 4.60 | – | COc1ccc(C2=C(c3cccc(C(F)(F)F)c3)C(=O)OC2)cc1 |
| – | – | < 4.60 | < 4.60 | – | O=C1OCC(c2ccccc2F)=C1c1ccc(Br)cc1 |
| – | – | 6.52 | < 4.60 | > 50% | COc1ccc(C2=C(c3cccc(Cl)c3F)C(=O)OC2)cc1 |

| pIC50 [1] | pIC50 [2] | pIC50 [3] | pIC50 [4] | Activity [5] | SMILES |
| --- | --- | --- | --- | --- | --- |
| – | – | < 4.60 | < 4.60 | – | Cc1ccc(C2=C(c3cccc(F)c3)C(=O)OC2)cc1 |
| – | – | < 4.60 | < 4.60 | – | O=C1OCC(c2ccc(Cl)cc2)=C1c1ccnc(Cl)c1 |
| – | – | < 4.60 | < 4.60 | – | Cc1ccc(C2=C(c3ccnc(F)c3)C(=O)OC2)cc1 |
| – | – | 6.44 | < 4.60 | > 50% | COc1ccc(C2=C(c3cccc(F)c3)C(=O)OC2)cc1 |
| – | – | < 4.60 | < 4.60 | – | O=C1OCC(c2ccccc2)=C1c1ccccc1F |
| – | – | 6.00 | < 4.60 | – | Cc1ccc(C2=C(c3ccccc3F)C(=O)OC2)cc1 |
| – | – | < 4.60 | < 4.60 | – | O=C1OCC(c2ccccc2)=C1c1ccc(Oc2ccc(F)cc2)cc1 |
| – | – | < 4.60 | < 4.60 | – | O=C1OCC(c2ccccc2F)=C1c1ccc(Cl)cc1 |
| – | – | 5.52 | < 4.60 | – | N#Cc1ccc(C2=C(c3ccnc(Cl)c3)C(=O)OC2)cc1 |
| – | – | 5.76 | < 4.60 | – | O=C1OCC(c2ccc(O)cc2)=C1c1cccc(F)c1 |
| – | – | < 4.60 | < 4.60 | – | O=C1OCC(c2ccc(F)cc2)=C1c1ccc(CO)cc1 |
| – | – | < 4.60 | < 4.60 | – | CSc1ccc(C2=C(c3ccc(F)cc3)C(=O)OC2)cc1 |
| – | – | 5.36 | < 4.60 | – | N#Cc1ccc(C2=C(c3ccnc(F)c3)C(=O)OC2)cc1 |
| – | – | < 4.60 | < 4.60 | – | Cc1ccc(C2=C(c3cccc(F)c3)COC2=O)cc1 |
| – | – | – | 7.22 | – | CS(=O)(=O)c1ccc(C2=C(c3ccccc3)C(=O)OC2)cc1 [ROFECOXIB] |
| – | – | 6.00 | < 4.60 | – | COc1ccc(C2=C(c3ccc(C(F)(F)F)cc3)C(=O)OC2)cc1 |
| 5.55 | < 5.30 | 5.22 | < 4.60 | – | O=C1OCC(c2ccccc2)=C1c1ccc(F)cc1 |
| – | – | < 4.60 | < 4.60 | – | O=C1OCC(c2ccc(OC(F)(F)F)cc2)=C1c1cccc(F)c1 |
| – | – | < 4.60 | < 4.60 | – | O=C1OCC(c2ccc(C(F)(F)F)cc2)=C1c1cccc(F)c1 |
| – | – | 5.34 | < 4.60 | – | COc1ccc(C2=C(c3ccnc(F)c3)C(=O)OC2)cc1 |
| – | – | < 4.60 | < 4.60 | – | Cc1ccc(C2=C(c3ccc(F)cc3)COC2=O)cc1 |
| – | – | < 4.60 | < 4.60 | – | Cc1ccc(C2=C(c3ccc(Oc4ccc(F)cc4)cc3)C(=O)OC2)cc1 |
| – | – | < 4.60 | < 4.60 | – | O=C1OCC(c2ccc(F)cc2)=C1c1ccccc1 |
| – | – | 4.80 | < 4.60 | – | O=C1OCC(c2ccc(Cl)cc2)=C1c1ccnc(F)c1 |
